From paper PMC6395383, “Participation of Gαi-Adenylate Cyclase and ERK1/2 in Mas Receptor Signaling Pathways” (Frontiers in Pharmacology, 2019)
Counter-ions that a name gives are not always drawn. No end group written: not given here.

Key:
renal AT1R = details: pM range; reference not clearly printed; cited from earlier work
Excerpt: (§1) The analysis of the interaction between Ang-(1–7) and the AT1R originated discrepancies. […] In addition, [Teixeira et al. (2017)] by performing competition binding assays using ...

AT1R = details: CHO-K1 cells; ref Kostenis et al., 2005; cited from earlier work
Excerpt: The modulation of the activity of ERK1/2 by Ang-(1–7) has been analyzed previously. […] Participation of the M ...

MasR [1] = system: MasR; set-up: method as in 2 sources, one per row (each row's own in cited_ref): ref Bikkavilli et al., 2006; Shemesh et al., 2008; Zhang et al., 2012; Tirupula et al., 2014 ||| ref Dong et al., 2001; details: ref Dong et al., 2001; cited from earlier work
AT1R (Homo sapiens) [2] = target: AT1R (Homo sapiens) (UniProt P30556); test: competition binding with 3H-Ang II; details: cited from earlier work
Chain of AT1R (Homo sapiens) (P30556 whole entry): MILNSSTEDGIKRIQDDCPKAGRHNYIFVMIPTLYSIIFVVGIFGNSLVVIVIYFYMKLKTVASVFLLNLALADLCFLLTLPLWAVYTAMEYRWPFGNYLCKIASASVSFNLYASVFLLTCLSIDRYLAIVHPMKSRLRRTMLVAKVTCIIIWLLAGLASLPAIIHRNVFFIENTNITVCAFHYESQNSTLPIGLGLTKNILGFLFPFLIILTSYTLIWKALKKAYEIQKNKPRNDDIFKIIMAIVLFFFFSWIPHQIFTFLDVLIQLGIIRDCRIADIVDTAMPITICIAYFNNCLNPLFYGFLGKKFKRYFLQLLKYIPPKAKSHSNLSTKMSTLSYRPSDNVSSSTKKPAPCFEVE

AT1R (Homo sapiens) [3] = target: AT1R (Homo sapiens) (UniProt P30556); test: competition binding; details: cited from earlier work
A549 cells = test: Intracellular Ca^2+ (Fura-2AM) in A549 cells with endogenous MasR; assay type: cell-based, human; details: histamine 10^-4 M, 340/380 ratio, 180 s, representative of three independent experiments
Protocol: Changes in intracellular Ca^2+ concentration were measured using fura-2 acetoxymethyl ester (Fura-2AM) fluorescent indicator. A549 cells were seeded in 96 wells dishes for 24 h (90–100% confluence). […] Fluorescence was measured in a FlexStation 3 microplate reader (Molecular Devices Inc., San Jose, CA, United States). […] After 30 s of initial recording to determine basal levels, 100 nM Ang (1–7) or 100 μM histamine was added in 100 μl final volumes, and the time course of intracellular Ca^2+ mobilization was recorded for 180 s. […] Autofluorescence was quantified by measuring the fluorescence produced by an equivalent suspension of not-loaded cells. Results were expressed as the ratio of fluorescence’s 340/380 over basal. Basal levels were determined as the media of the recorded measurements in the first 30 s for each well.

MasR (A549 cells) = test: Intracellular Ca^2+ (Fura-2AM) in A549 cells transfected with pcDNA 3.1/myc-MasR; assay type: cell-based, human; details: histamine 10^-4 M, same conditions (Figure 3E,F: empty vector or MasR)
Protocol: An empty vector [pcDNA 3.1 (+)] was used both as negative control and to deliver an equal amount of plasmid per transfection in all the experiments.
Changes in intracellular Ca^2+ concentration were measured using fura-2 acetoxymethyl ester (Fura-2AM) fluorescent indicator. […] Fluorescence was measured in a FlexStation 3 microplate reader (Molecular Devices Inc., San Jose, CA, United States). […] After 30 s of initial recording to determine basal levels, 100 nM Ang (1–7) or 100 μM histamine was added in 100 μl final volumes, and the time course of intracellular Ca^2+ mobilization was recorded for 180 s. […] Autofluorescence was quantified by measuring the fluorescence produced by an equivalent suspension of not-loaded cells. Results were expressed as the ratio of fluorescence’s 340/380 over basal. […]

MasR [4] = system: MasR; set-up: method as in Gaidarov et al. (2018); details: 30 min forskolin pre-incubation, 60 min with ligand; ref Gaidarov et al. (2018); cited from earlier work
heart = details: orally active; ref Ferreira et al., 2007; cited from earlier work
Excerpt: The physiological relevance of the constitutive activity of the MasR remains to be determined. Constitutive activity of GPCRs for various neurotransmitters contributes to basal neuronal activity ([Seifert and Wenzel-Seifert, 2002]). The mRNA encoding the MasR has been detected in various regions of the rat and mouse brain ([Young et al., 1988]; [Bunnemann et al., 1990]; [Martin et al., 1992]; [Metzger et al., 1995]). In addition, it has been reported that MasR-KO mice have alterations of the CNS ([Walther et al., 1998], [2000a],[b]). Thus, the constitutive activity of the MasR could play a reg ...

HEK293T cells = test: cAMP accumulation, forskolin-stimulated, in empty-vector (pcDNA 3.1) HEK293T cells; assay type: cell-based, human; details: HEK293T transfected with empty vector; 1 mM IBMX, 1 μM forskolin; ligand 5 min; three independent experiments
Protocol: For time-course assays, transfected cells were seeded in 24 wells dishes and after 24 h, 100% confluent cells were starved for 2 h and incubated 5 min in basal culture medium supplemented with 1 mM IBMX at 37°C, followed by exposure to 1 μM forskolin for 5, 10, 15, 30, or 60 min. In concentration response assays, transfected cells were seeded in 24 wells dishes after 24 h, 100% confluent cells were starved for 2 h and incubated 5 min in basal culture medium supplemented with 1 mM IBMX at 37°C, followed by 10 min exposure to 1 μM forskolin to increase basal cAMP levels, and incubated for 5 min with indicated concentrations of Ang-(1–7) or AVE 0991. For all cAMP determinations, the reactions were stopped by ethanol addition followed by centrifugation at 2,000 g for 10 min. The ethanol phase was then dried, and the residue resuspended in 50 mM Tris-HCl pH 7.4, 0.1% BSA. cAMP content was determined by competition of [^3H]cAMP for PKA, as previously described ([Davio et al., 1995]).

human MasR = target: T1, human MasR (Homo sapiens, UniProt P04201); test: cAMP accumulation, forskolin-stimulated, in MasR-transfected HEK293T cells (competition of [^3H]cAMP for PKA); assay type: cell-based; details: 1 mM IBMX
T1 construct: host or cells: HEK293T, transient transfection
T1 sequence (P04201 1-325): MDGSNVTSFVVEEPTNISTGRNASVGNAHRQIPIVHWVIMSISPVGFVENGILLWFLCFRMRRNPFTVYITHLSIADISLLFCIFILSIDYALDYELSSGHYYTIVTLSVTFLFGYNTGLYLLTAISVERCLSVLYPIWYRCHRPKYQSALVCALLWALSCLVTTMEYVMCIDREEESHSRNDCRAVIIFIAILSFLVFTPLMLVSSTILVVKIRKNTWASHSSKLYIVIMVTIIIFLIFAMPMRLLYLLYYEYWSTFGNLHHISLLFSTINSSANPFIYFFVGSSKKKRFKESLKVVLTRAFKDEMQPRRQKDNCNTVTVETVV
Protocol: A pcDNA3.1(+)-myc-MasR expression construct corresponding to the human MasR (accession number: NM_002377.2) fused to the c-myc tag peptide at N-terminal was acquired from Life Technologies (Grand Island, NY, United States). An empty vector [pcDNA 3.1 (+)] was used both as negative control and to deliver an equal amount of plasmid per transfection in all the experiments.
Cultures were maintained at 37°C in humidified atmosphere containing 5% CO2. For transient transfections, cells were grown to 80–90% confluency and the cDNA constructs were transfected using the K2 Transfection System (Biontex, Munich, Germany). The transfection protocol was optimized as recommended by the suppliers. Assays were performed 48 h after transfection. […] The transfection protocol was optimized as recommended by the suppliers. Assays were performed 48 h after transfection.
For determination of cAMP basal levels, transfected cells were seeded in 12 wells dishes, 24 h later 100% confluent cells were starved for 2 h and pretreated, when indicated, for 1 h with pertussis toxin (100 ng/ml) and incubated later for 30 min in basal culture medium supplemented with 1 mM IBMX at 37°C. […] The ethanol phase was then dried, and the residue resuspended in 50 mM Tris-HCl pH 7.4, 0.1% BSA. cAMP content was determined by competition of [^3H]cAMP for PKA, as previously described ([Davio et al., 1995]).

AT1R mRNA = AT1R mRNA by qPCR after siRNA transfection of HEK293T cells; assay type: cell-based, human; details: siRNA 100 nM, 48 h after transfection, β-Actin, three independent experiments
Protocol: HEK293T (human embryonic kidney) and A549 (human lung carcinoma) cells were cultured in Dulbecco’s modified Eagle’s medium (DMEM) supplemented with 10% fetal calf serum and 50 μg/ml gentamicin. Cultures were maintained at 37°C in humidified atmosphere containing 5% CO2. For transient transfections, cells were grown to 80–90% confluency and the cDNA constructs were transfected using the K2 Transfection System (Biontex, Munich, Germany). The transfection protocol was optimized as recommended by the suppliers. Assays were performed 48 h after transfection. […]
Total RNA was isolated from wild type or transfected HEK293T cells using Quick-Zol reagent (Kalium Technologies, Bernal, Argentina) following the manufacturer’s instructions. […] Quantitative real-time PCR (qPCR) was performed in triplicate on the Rotor Gene Q cycler (Qiagen, Hilden, Germany) using the resulting cDNA, the HOT FIREPol EvaGreen qPCR Mix Plus (Solis BioDyne, Tartu, Estonia) for product detection, and the following primers: human MasR (NM_002377.2) forward, 5′-[…] -3′ and reverse 5′-[…]-3′; human AT1R (M93394.1) forward, 5′-[…]-3′ and reverse, 5′-[…]-3′; human AT2R (NM_000686.4) forward, 5′-[…]-3′ and reverse 5′-[…]-3′; and human β-Actin forward, 5′-[…]-3′ and reverse 5′-[…]-3′. […]

[5] = system: rat proximal straight tubule; details: against 10^-12 and 10^-8 M Ang-(1–7); ref Garcia and Garvin (1994); cited from earlier work
Excerpt: as §1

Mas receptor = details: ref Tetzner et al., 2016; cited from earlier work
Excerpt: (§2) The reasons for this discrepancy could rely on the different approaches used to detect the cAMP levels. We desig ...

MrgD receptor = details: ref Tetzner et al., 2016; cited from earlier work
Excerpt: as §2

## Ang II: angiotensin II, of the classical RAS axis (DRVYIHPF; Angiotensin-2; UniProt P01019 25-32, looked up)
Renal AT1R
  affinity of renal AT1R on proximal tubules: very high affinity for Ang II (in the pM range)
AT1R
  Ang II-induced IP1 production and Ca^2+ increase on MasR/AT1R coexpression: significantly decreased both the Ang II-induced production of IP1 and the increase of intracellular Ca^2+ levels mediated by the AT1R

## NPFF: neuropeptide FF (FLFQPQRF; ends and bridges not checked; UniProt O15130 69-76, looked up)
MasR [1]
  conventional G protein signaling, NPFF: conventional G protein signaling has been reported

## Angiotensin-(1-7) (from UniProt P01019)
AT1R (Homo sapiens) [2]
  Ki: 200 nM
AT1R (Homo sapiens) [3]
  Ki: 360 nM

## NCCc1c[nH]cn1 [histamine, histamine dihydrochloride]
A549 cells
  intracellular Ca^2+ levels, A549 cells (endogenous MasR), positive control: significant increase in cytosolic Ca^2+ levels
MasR (A549 cells)
  intracellular Ca^2+ levels, transfected A549 cells, positive control: important increase in Ca^2+ levels

## CCNC(=O)NS(=O)(=O)c1sc(CC(C)C)cc1-c1ccc(Cn2c(-c3ccccc3)nc(OC)c2C=O)cc1 [AVE 0991, 5-formyl-4-methoxy-2-phenyl-1-[[4-[2-ethylaminocarbonylsulfonamido-5-isobutil-3-thienyl]phenyl]-methyl]imidazole]
MasR [4]
  forskolin-stimulated cAMP levels in MasR-transfected HEK293 cells: no change in forskolin-stimulated cAMP levels
heart
  heart dysfunction, AVE 0991: beneficial effects obtained in heart dysfunction
HEK293T cells
  modulation of cAMP levels, empty vector: did not alter cAMP levels
Human MasR; HEK293T overexpressing MasR, 1 μM forskolin, ligand 5 min
  modulation of cAMP levels: concentration-dependent decrease in the production of cAMP
Human MasR; HEK293T transfected with pcDNA3.1/c-myc-MasR, 10 min 1 μM forskolin, then 5 min ligand, 37°C, mean ± SEM of three independent experiments
  pEC50, concentration-dependent decrease in the production of cAMP: 7.75 ± 0.40

## AT1R siRNA: human AT1R siRNA (AUACGUGACUGUAGAAUUG) (chemistry not given here)
AT1R mRNA
  reduction of AT1R mRNA levels versus scrambled siRNA: ~50%

## CCCCc1nc(Cl)c(CO)n1Cc1ccc(-c2ccccc2-c2nn[nH]n2)cc1 [losartan]
[5]
  block of Ang-(1–7) effects on absorption: both effects were blocked by losartan

## D-Pro7-Ang-(1–7)
Mas receptor
  antagonism of Ang-(1–7)-induced cAMP increase, HEK293 overexpressing Mas: blocked
MrgD receptor
  antagonism of Ang-(1–7)-induced cAMP increase, HEK293 overexpressing MrgD: blocked

## D-Ala7-Ang-(1–7)
Mas receptor
  antagonism of Ang-(1–7)-induced cAMP increase, HEK293 overexpressing Mas: blocked
MrgD receptor
  antagonism of Ang-(1–7)-induced cAMP increase, HEK293 overexpressing MrgD: blocked
